Results taken from patent publication US11926576B1, “4,4′-naphthalene-1,5-diylbis(diazene-2,1-diyl)dibenzene-1,2-diol as an antioxidant compound” (KING FAISAL UNIVERSITY, priority 2023, dated 2024).

Assay: DPPH radical scavenging antioxidant test
Assay type: biochemical
Details: 517 nm; for Inhibition (radical scavenging inhibition): compound 3 μM in ethanol, 0.2 mL DPPH (0.75 mM), 30 min incubation in the dark
Method: The antioxidant properties of the 4,4′-naphthalene-1,5-diylbis(diazene-2,1-diyl)dibenzene-1,2-diol were studied by adding 0.2 mL DPPH (0.75 mM)) to compound 4,4′-naphthalene-1,5-diylbis(diazene-2,1-diyl)dibenzene-1,2-diol (III) (3 μM) in ethanol. After 30 min of incubation in the dark, the absorbance was read against a blank at 517 nm. Ascorbic acid (vitamin C) was used as standard antioxidants (positive control). A blank sample was prepared by 0.2 ml of DPPH in 3 ml ethanol. A negative control sample was run using ethanol instead of the sample. The radical scavenging inhibition was calculated using the following equation: […]

Row | Structure (SMILES) | antioxidant potential (DPPH) compared to vitamin C (DPPH in vitro test, vitamin C as positive control) | Inhibition (radical scavenging inhibition) [%]
1 | Oc1ccc(/N=N/c2cccc3c(/N=N/c4ccc(O)c(O)c4)cccc23)cc1O [Product III, 4,4′-naphthalene-1,5-diylbis(diazene-2,1-diyl)dibenzene-1,2-diol] | high potential as an antioxidant compared to vitamin C | 50
2 | O=C1O[C@H]([C@@H](O)CO)C(O)=C1O [vit c, Ascorbic acid, reference compound] |  | 74
